The values that follow come from ChEMBL document CHEMBL5230104, “Systemic review on B-RafV600E mutation as potential therapeutic target for the treatment of cancer” (Eur J Med Chem, 2020).

pIC50: −log10 of the molar value.

Experiment [1] concerns M14. Put plainly: Antiproliferative activity against human M14 cells. The class given is functional, cell-based.
Experiment [2] has as its system Melanoma cell line. Nature of the experiment: Antiproliferative activity against human Melanoma cell line. The class given is functional, cell-based.
Experiment [3] deals with A-375. Nature of the experiment: Antitumor activity against human A-375 cell xenografted in F344 nude rat model assessed as tumor growth inhibition by measuring T/C ratio at 24.1 mg/kg relative to control. The class given is functional.
The test system of experiment [4] is HT-144. Put plainly: Antiproliferative activity against human HT-144 cells harbouring B-Raf V600E mutant by SRB assay. The class given is functional, cell-based. (In general: The SRB assay estimates cell density from bound dye.)
Experiment [5] relates to A-375. Put plainly: Antiproliferative activity against human A-375 cells harbouring B-Raf V600E mutant by SRB assay. The class given is functional, cell-based.
Experiment [6] deals with HMV-2 cell line. Put plainly: Antiproliferative activity against human HMV-2 cells harbouring B-Raf G469V mutant by SRB assay. The class given is functional, cell-based.
For experiment [7], the system named is A-375. Put plainly: Antitumor activity against human A-375 cell xenografted in F344 nude rat model assessed as tumor growth inhibition by measuring T/C ratio at 9.7 mg/kg relative to control. The class given is functional. For orientation: A xenograft is tissue or cells of one species grown in another, often human tumour cells in immunodeficient mice.
Experiment [8] has as its system Malme-3M. Put plainly: Antiproliferative activity against human Malme-3M cells harbouring B-Raf V600E mutant by SRB assay. The class given is functional, cell-based.
Experiment [9] relates to CHL-1. Nature of the experiment: Antiproliferative activity against human CHL-1 cells harbouring wild type B-Raf by SRB assay. The class given is functional, cell-based.
Experiment [10] deals with HMCB cell line. Put plainly: Antiproliferative activity against human HMCB cells harbouring wild type B-Raf by SRB assay. The class given is functional, cell-based.
Experiment [11] deals with SK-MEL-2. Put plainly: Antiproliferative activity against human SK-MEL-2 cells harbouring wild type B-Raf by SRB assay. The class given is functional, cell-based.
Experiment [12] has as its system SK-MEL-28. Put plainly: Antiproliferative activity against human SK-MEL-28 cells assessed as inhibition of cell viability. The class given is functional, cell-based.
Experiment [13] has as its target Serine/threonine-protein kinase B-raf (Homo sapiens, UniProt P15056, V600E). Nature of the experiment: Inhibition of B-Raf V600E mutant (unknown origin).
In experiment [14] the test system is A-375. Nature of the experiment: Antitumor activity against human A-375 cells xenografted in mouse model assessed as tumor growth inhibition at 50 mg/kg, iv relative to control. The class given is functional. More on the design: scale not given: the % may be the effect or the level left.
Experiment [15] concerns Malme-3M. Nature of the experiment: Antiproliferative activity against human Malme-3M cells assessed as inhibition of cell viability. The class given is functional, cell-based.
The subject of experiment [16] is A-375. Put plainly: Antiproliferative activity against human A-375 cells assessed as inhibition of cell viability. The class given is functional, cell-based.
The test system of experiment [17] is COLO-829. Nature of the experiment: Antiproliferative activity against human COLO-829 cells by CellTiter-Glo Luminescent Cell Viability Assay. The class given is functional, cell-based. (In general: In ATP-based viability assays light output follows the ATP content of the culture.)
Experiment [18] deals with COLO 205. Put plainly: Antitumor activity against human COLO 205 cells xenografted in mouse model assessed as tumor growth inhibition at 30 mg/kg/day relative to control. The class given is functional. More on the design: scale not given: the % may be the effect or the level left.
Experiment [19] relates to A-375. Nature of the experiment: Antiproliferative activity against human A-375 cells by CellTiter-Glo Luminescent Cell Viability Assay. The class given is functional, cell-based.
Experiment [20] deals with WM 266-4. Nature of the experiment: Antiproliferative activity against human WM266-4 cells by CellTiter-Glo Luminescent Cell Viability Assay. The class given is functional, cell-based.
In experiment [21] the test system is COLO 205. Put plainly: Antiproliferative activity against human COLO 205 cells by CellTiter-Glo Luminescent Cell Viability Assay. The class given is functional, cell-based.
Experiment [22] concerns SK-OV-3. Nature of the experiment: Antiproliferative activity against human SK-OV-3 cells. The class given is functional, cell-based.
In experiment [23] the target is T1, Serine/threonine-protein kinase B-raf (Homo sapiens, UniProt P15056). Nature of the experiment: Inhibition of wild type B-Raf (unknown origin).
In experiment [24] the test system is SK-OV-3. Nature of the experiment: Antitumor activity against human SK-OV-3 cells xenografted in mouse model assessed as reduction in tumor growth measured after 40 days relative to control. The class given is functional. Further details: scale not given: the % may be the effect or the level left. The following applies: time 40 day.
Experiment [25] is described as follows: In vivo inhibition of B-Raf in human A-375 cells xenografted in mouse model assessed as tumor growth inhibition. The class given is functional, cell-based.
Experiment [26] deals with SK-MEL-5. Put plainly: Anticancer activity against human SK-MEL-5 cells assessed as cell growth proliferation. The class given is functional, cell-based.
In experiment [27] the test system is UO-31. Nature of the experiment: Anticancer activity against human UO-31 cells assessed as cell growth proliferation. The class given is functional, cell-based.
For experiment [28], the system named is HOP-92. Put plainly: Anticancer activity against human HOP-92 cells assessed as cell growth proliferation. The class given is functional, cell-based.
In experiment [29] the test system is SW-620. Put plainly: Anticancer activity against human SW620 cells assessed as cell growth proliferation. The class given is functional, cell-based.
The subject of experiment [30] is A-375. Nature of the experiment: Anticancer activity against human A-375 cells assessed as cell growth proliferation. The class given is functional, cell-based.
In experiment [31] the test system is Serine/threonine-protein kinase B-raf (Homo sapiens), P15056 [V600E]. Put plainly: Inhibition of B-Raf V600E mutant (unknown origin) at 10 uM relative to control.
In experiment [32] the test system is SNB-75. Put plainly: Anticancer activity against human SNB-75 cells assessed as cell growth proliferation. The class given is functional, cell-based.
Experiment [33] concerns PC-3. Put plainly: Anticancer activity against human PC-3 cells assessed as cell growth proliferation. The class given is functional, cell-based.
The subject of experiment [34] is OVCAR-3. Put plainly: Anticancer activity against human OVCAR-3 cells assessed as cell growth proliferation. The class given is functional, cell-based.
In experiment [35] the test system is MDA-MB-468. Nature of the experiment: Anticancer activity against human MDA-MB-468 cells assessed as cell growth proliferation. The class given is functional, cell-based.
Experiment [36] has as its system SR. Put plainly: Anticancer activity against human SR cells assessed as cell growth proliferation. The class given is functional, cell-based.
Experiment [37] concerns NCI-H522. Put plainly: Anticancer activity against human NCI-H522 cells assessed as cell growth proliferation. The class given is functional, cell-based.
Experiment [38] concerns HT-29. Nature of the experiment: Anticancer activity against human HT-29 cells assessed as cell growth proliferation. The class given is functional, cell-based.
Experiment [39] concerns the target T1, Serine/threonine-protein kinase B-raf. Nature of the experiment: Inhibition of B-Raf (unknown origin).
For experiment [40], the system named is HT-29. Put plainly: Antiproliferative activity against human HT-29 cells assessed as cell growth proliferation. The class given is functional, cell-based.

T1 sequence (P15056 whole entry): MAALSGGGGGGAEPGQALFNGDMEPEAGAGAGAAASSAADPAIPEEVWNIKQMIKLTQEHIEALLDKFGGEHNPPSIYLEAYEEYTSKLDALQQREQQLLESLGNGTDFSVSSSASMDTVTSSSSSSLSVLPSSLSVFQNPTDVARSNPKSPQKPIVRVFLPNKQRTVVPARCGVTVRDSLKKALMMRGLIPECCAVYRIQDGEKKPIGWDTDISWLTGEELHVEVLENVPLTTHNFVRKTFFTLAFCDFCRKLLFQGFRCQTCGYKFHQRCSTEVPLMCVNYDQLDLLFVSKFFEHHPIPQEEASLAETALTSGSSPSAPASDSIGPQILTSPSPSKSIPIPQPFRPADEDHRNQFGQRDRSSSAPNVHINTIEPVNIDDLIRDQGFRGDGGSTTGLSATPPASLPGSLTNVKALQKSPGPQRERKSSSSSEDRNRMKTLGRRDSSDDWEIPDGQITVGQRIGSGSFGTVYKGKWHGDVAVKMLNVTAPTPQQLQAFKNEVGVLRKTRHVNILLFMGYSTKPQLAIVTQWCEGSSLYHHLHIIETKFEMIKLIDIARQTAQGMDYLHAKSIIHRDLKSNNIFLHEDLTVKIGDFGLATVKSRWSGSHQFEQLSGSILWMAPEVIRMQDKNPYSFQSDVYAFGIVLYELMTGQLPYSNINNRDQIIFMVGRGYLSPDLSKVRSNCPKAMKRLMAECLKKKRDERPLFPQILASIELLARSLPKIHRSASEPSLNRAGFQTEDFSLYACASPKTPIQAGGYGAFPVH
Chain of Serine/threonine-protein kinase B-raf (Homo sapiens, UniProt P15056, V600E) (P15056 whole entry V600E): as the sequence (P15056 whole entry) above, with V600E counted along it
Chain of Serine/threonine-protein kinase B-raf (Homo sapiens), P15056 [V600E] (P15056 whole entry V600E): as the sequence (P15056 whole entry) above, with V600E counted along it

Usually pIC50 stands for −log10 of the IC50, conventionally taken in molar units. On to `Cc1ccc(NC(=O)c2cccc(C(C)(C)C#N)c2)cc1Nc1ccc2ncn(C)c(=O)c2c1`, for which the negative logarithm of the IC50 (pIC50) is 7.00 in experiment [1] and 5.00 in experiment [2].
One may read the T/C as the result in the treated group divided by that in the control group, in per cent. As for `N#Cc1c(Oc2ccc(F)c(NC(=O)Cc3cccc(C(F)(F)F)c3)c2)ccc2nc(NC(=O)C3CC3)sc12`, the T/C in experiment [3] amounted to 12.1%; in [7], 2.1%. The pIC50 in [4] is 6.96; in experiment [5] it was 6.80; in experiment [6] it was 6.70; in [8] it was 7.30; in experiment [9], 8.68; in experiment [10], 6.46. Besides, in experiment [11], the negative logarithm of the IC50 (pIC50) is 7.22.
`CN(C)CCOc1ccc(-c2n/c(=c3\ccc4c(c3)CCC=4N=O)c(=C3C=CNC=C3)[nH]2)cc1`: the negative logarithm of the IC50 (pIC50) was 6.92 in experiment [12], […] in experiment [13], 6.82 in experiment [15] and 6.43 in [16]. The Activity in experiment [14] is listed as 80%.
Turning to `CCCS(=O)(=O)Nc1ccc(F)c(C(=O)c2c[nH]c3ncc(Cl)cc23)c1F` [PLX-4720], the pIC50 in [17] is 5.77; in experiment [19], 6.30; in [20], 5.82; in experiment [21], 6.51. Also, the Activity in experiment [18] amounted to 90%.
`COC[C@@H]1C[C@H]2[C@@H]3CCc4cc(O)ccc4[C@H]3CC[C@]2(C)C1NN` (stereo partly specified): the figures for the pIC50 in experiment [22], in [13] and in [23] were 5.37, 7.39 and 5.36, respectively. The Activity in [24] is given as 93.61%.
As to `OCCn1cc(-c2ccc3c(c2)CC/C3=N/O)c(-c2ccncc2)n1`, the negative-log IC50 (pIC50) in experiment [25] is 7.23.
By inhibition is commonly meant the share of the control response that was lost under treatment. As to `CCN1CCN(CCC(=O)Nc2cccc(-n3cc(-c4ccncc4)c(-c4ccc(Cl)c(OC)c4)n3)c2)CC1`, the negative-log IC50 (pIC50) in experiment [26] is 6.29; in experiment [27], 6.04; in [28] it was 6.11; in experiment [29], 6.47; in [30] it was 6.09; in [32], 6.41. Also, the pIC50 in [33] is 6.35; in experiment [34], 6.46; in experiment [35], 6.57; in experiment [36] it was 6.37; in experiment [37], 6.57; in [38] it was 6.42. This compound also had an inhibition in [31] of 100%.
Take `COc1ccc(-c2n[nH]c(/N=C/c3ccc(O)c(OC)c3)n2)cc1`: the results for the negative logarithm of the IC50 (pIC50) in experiment [39] and in [40] were 6.15 and 5.89, respectively.
